From publication PMC5908295 (Oncotarget, 2018)
Read-outs that look alike come from different tables or passages of the source.

Legend:
KASUMI-3 = assay: MTS viability assay, 72 h; settings: for CC50: read-out: LC50
Experimental: (§4) 15-25 ×10^3 of MV-4-11, MOLM-13, MOLM-14, MOLM-16, KG-1, Eol-1, SKM-1, PL-21, GDM-1, SKNO-1, RS4;11, Kasumi-3 and Kasumi-6 cells were seeded in 150 μL of culture medium onto individual wells in a 96 well plates, in triplicates. On the same day, 50 μL of medium containing tested inhibitor was added to the wells. Each compound was tested at 8 concentrations, in triplicates. As a negative control, the medium containing 0.1% DMSO was used. […] Staurosporine was used at 10 μM as a positive control. One the day of drug addition, basal signal from untreated cells was measured from in triplicate to determine time zero (T0). […] GI50 and LC50 values were extrapolated from a variable (four-parameter) dose-response curve fitted in GraphPad Prism.

OCI-AML-3 = assay: MTS viability assay, 72 h; settings: OCI-AML-3, 72 h
Experimental: as §4

KASUMI-6 = assay: MTS viability assay, 72 h
Experimental: as §4

EOL-1 = assay: MTS viability assay, 72 h
Experimental: as §4

GDM-1 = assay: MTS viability assay, 72 h; settings: GDM-1, 72 h
Experimental: as §4

MOLM-16 = assay: MTS viability assay, 72 h
Experimental: (§5) On the same day, 50 μL of medium containing tested inhibitor was added to the wells. Each compound was tested at 8 concentrations, in triplicates. As a negative control, the medium containing 0.1% DMSO was used. […] Staurosporine was used at 10 μM as a positive control. One the day of drug addition, basal signal from untreated cells was measured from in triplicate to determine time zero (T0). […] GI50 and LC50 values were extrapolated from a variable (four-parameter) dose-response curve fitted in GraphPad Prism.

OCI-AML-2 = assay: MTS viability assay, 72 h
Experimental: as §5

MOLM-6 = assay: MTS viability assay, 72 h; settings: for CC50: read-out: LC50
Experimental: as §4

MOLM-13 = assay: MTS viability assay, 72 h; settings: MOLM-13, 72 h; for CC50: read-out: LC50
Experimental: as §4

RS4;11 = assay: MTS viability assay, 72 h; settings: for CC50: read-out: LC50
Experimental: as §4

SIG-M5 = assay: MTS viability assay, 72 h; settings: SIG-M5, 72 h; for CC50: read-out: LC50
Experimental: as §5

SKM-1 = assay: MTS viability assay, 72 h; settings: SKM-1, 72 h; for CC50: read-out: LC50
Experimental: as §5

KG-1 = assay: MTS viability assay, 72 h; settings: KG-1, 72 h; for CC50: read-out: LC50
Experimental: as §4

PL-21 = assay: MTS viability assay, 72 h; settings: PL-21, 72 h
Experimental: as §4

MOLM-14 = assay: MTS viability assay, 72 h; settings: Homo sapiens, MOLM-14, 72 h
Experimental: as §4

MV-4-11 [1] = assay: MTS viability assay, 72 h
Experimental: as §5

SKNO-1 = assay: MTS viability assay, 72 h; settings: SKNO-1, 72 h
Experimental: as §4

MV-4-11 [2] = assay: Drug interactions (combination index), MTS; type: cell-based; settings: MV-4-11
Experimental: and AC220 in AML cell lines was assessed using an MTS assay. Cells viability was measured after 72 h incubation with three-fold serial dilutions of compounds, starting at 10 µM concentration. Obtained data were presented as percentage of viable cells compared with control (untreated) cells viability. Error bars indicate SD.
11 cells. Combination index (CI) are shown on the Y axis and compound concentrations are shown on X and Z axes. Values […] and below 0.7- a synergy between tested compounds. Values above 1 indicate an antagonistic effect.
(1 picture or pasted object on this page, not shown here)

[3] = test system: MOLM-14 cells transduced with FLT3 TKD point mutations (D835Y, D835V and F691L); assay: MTS viability of MOLM-14 cells with FLT3 alleles; type: cell-based; settings: 72 h
MOLM-13 xenografts = assay: MOLM-13 subcutaneous xenograft; type: in vivo; settings: MOLM-13, SCID mice; AC220 10 mg/kg QD, other doses not given
Excerpt: (§1) All animals were handled in strict accordance with good animal practice as defined by the relevant national and local animal welfare bodies. SCID and SCID/beige C.B-17 mice were provided by Harlan Laboratories or Charles River Laboratories, and were maintained in pathogen free conditions. For the xenograft experiments, age-matched (9-11 weeks old) females were used. 5×10^6 of MV-4-11 or MOLM-16 cells were suspended in a mixture (1:1, v:v) of PBS with Matrigel (BD Biosciences,) and injected subcutaneously (sc), in a total volume of 100 μL, above the groin on the right hind limb. For MOLM-13 and KG-1 cells, a mixture (3:1, v:v) of PBS and Matrigel HC (BD Bioscience,) was used to inject 5 × 10^6 of cell per mouse subcutaneously (sc), in a total volume of 100 μL. When tumors reached 100-130 mm^3, mice were randomized into uniform groups (6-9 mice per group) and subsequently administered the compound. […] At the end of the experiment, mice were anesthetized with isofluran and blood samples for total cell counts and biochemistry were obtained by retro-orbital bleeding. […] 5×10^6 cells suspended in a mixture (3:1, v:v) of PBS and Matrigel were injected as described above. […] Tumor volume was monitored every second day and calculated using the formula: TV = (a^2×b)/2, where “a” is the short axis in millimeters, and “b” is the long axis in millimeters. Body weight was assessed every day.

MOLM-16 (FLT3-WT) cells = assay: Western blot of FLT3/PIM downstream signaling; type: cell-based; settings: MOLM-16, 4 hours
Experimental: (§2) Thereafter, we assessed the activities of FLT3-ITD – induced key pro-survival signaling pathways; STAT5, RAF/MEK/ERK and PI3K/AKT (Figure 3). […] Since the expression of a major anti-apoptotic BCL2 family member, MCL1, is regulated by translation, and PIM kinases regulate protein synthesis through 4EBP1, we also assessed the abundance of MCL1.
(§3) Cells were collected, washed twice with cold PBS, and lysed in RIPA buffer and kept on ice for 10 min. Tumor specimens from xenograft studies were homogenized in RIPA buffer using OMNI TH Tissue Homogenizer and kept on ice for 30 min. After incubation, cell and tumor lysates were centrifuged at 13,000×g at 4°C for 10 min and the supernatants were stored at −80°C until use. Protein concentration was measured using the Bradford method. For SDS-PAGE, 50 μg of protein in the Laemmli sample buffer was loaded onto 10% polyacrylamide gels and electrophoresed. Thereafter, proteins were transferred onto polyvinylidene fluoride (PVDF) membranes (Millipore). After blocking with 5% non-fat dry milk/TBS-T or 2% BSA/TBS-T, membranes were incubated with specific primary antibodies (listed in Supplementary Table 2) at 4 °C overnight. After extensive washing in PBS-T, membranes were incubated for 60 min with appropriate secondary peroxidase-conjugated IgG. The immunoreactive proteins were detected using an enhanced chemiluminescence (ECL) substrate (GE Healthcare) and visualized with Hyperfilm-ECL (GE Healthcare Biosciences).

[4] = test system: MV-4-11 (FLT3-ITD+) cells; assay: Western blot of FLT3/PIM downstream signaling; type: cell-based; settings: MV-4-11, 4 hours
Experimental: as §2, §3

KG-1 (FLT3-WT) tumor = assay: KG-1 subcutaneous xenograft; type: in vivo; settings: KG-1, SCID mice; doses not given
Excerpt: as §1

Question: `CC(C)(C)c1cc(NC(=O)Nc2ccc(-c3cn4c(n3)sc3cc(OCCN5CCOCC5)ccc34)cc2)no1` [AC220] was tested. Which GI50 (KASUMI-3; Kasumi-3, 72 h) did it give?
Answer: The GI50 was < 5 nM.

Question: And the CC50 (KASUMI-3; Kasumi-3, 72 h)?
Answer: The CC50 was < 5 nM.

Question: And the GI50 (OCI-AML-3; Homo sapiens)?
Answer: The GI50 was 1180 nM.

Question: What about the CC50 (OCI-AML-3; Homo sapiens, read-out: LC50) of the same compound?
Answer: Its CC50 is > 10000 nM.

Question: And the GI50 (KASUMI-6; 72 h)?
Answer: The GI50 was < 5 nM.

Question: What about the GI50 (EOL-1; Homo sapiens, EOL1, 72 h) of the same compound?
Answer: The GI50 was < 5 nM.

Question: What about the GI50 (GDM-1; Homo sapiens) of the same compound?
Answer: Its GI50 is 33 nM.

Question: And the GI50 (MOLM-16; MOLM16, 72 h)?
Answer: The GI50 was 688 nM.

Question: And the CC50 (MOLM-16; MOLM16, 72 h, read-out: LC50)?
Answer: Its CC50 is 8230 nM.

Question: And the GI50 (OCI-AML-2; Homo sapiens, OCI-AML2, 72 h)?
Answer: Its GI50 is 499 nM.

Question: And the CC50 (OCI-AML-2; Homo sapiens, OCI-AML2, 72 h, read-out: LC50)?
Answer: The CC50 was 1240 nM.

Question: What about the GI50 (MOLM-6; 72 h) of the same compound?
Answer: Its GI50 is 681 nM.

Question: And the CC50 (MOLM-6; 72 h)?
Answer: The CC50 was > 10000 nM.

Question: What about the GI50 (MOLM-13; Homo sapiens) of the same compound?
Answer: Its GI50 is < 5 nM.

Question: What about the CC50 (MOLM-13; Homo sapiens) of the same compound?
Answer: The CC50 was 42 nM.

Question: And the GI50 (RS4;11; Homo sapiens, RS4-11, 72 h)?
Answer: The GI50 was 132 nM.

Question: What about the CC50 (RS4;11; Homo sapiens, RS4-11, 72 h) of the same compound?
Answer: The CC50 was 6960 nM.

Question: What about the GI50 (SIG-M5; Homo sapiens) of the same compound?
Answer: Its GI50 is 558 nM.

Question: And the CC50 (SIG-M5; Homo sapiens)?
Answer: The CC50 was 3090 nM.

Question: And the GI50 (SKM-1; Homo sapiens)?
Answer: The GI50 was 1130 nM.

Question: And the CC50 (SKM-1; Homo sapiens)?
Answer: The CC50 was 7790 nM.

Question: And the GI50 (KG-1; Homo sapiens)?
Answer: The GI50 was 210 nM.

Question: What about the CC50 (KG-1; Homo sapiens) of the same compound?
Answer: The CC50 was > 10000 nM.

Question: And the GI50 (PL-21)?
Answer: Its GI50 is 412 nM.

Question: What about the GI50 (MOLM-14) of the same compound?
Answer: Its GI50 is < 5 nM.

Question: And the CC50 (MOLM-14; read-out: LC50)?
Answer: The CC50 was 196 nM.

Question: What about the GI50 (MV-4-11 [1]; Homo sapiens, MV4-11, 72 h) of the same compound?
Answer: Its GI50 is < 5 nM.

Question: What about the CC50 (MV-4-11 [1]; Homo sapiens, MV4-11, 72 h, read-out: LC50) of the same compound?
Answer: The CC50 was < 5 nM.

Question: What about the GI50 (SKNO-1) of the same compound?
Answer: The GI50 was 6 nM.

Question: Which results are given for `N[C@@H]1CCCN(c2c(/C=C3\SC(=O)NC3=O)cccc2-c2ccccc2)C1` [AZD1208]?
Answer: GI50 (KASUMI-3; KASUMI-3, 72 h, dilutions starting at 10 µM): 57 nM; CC50 (KASUMI-3; KASUMI-3, 72 h, 50% death relative to T0): 4630 nM; GI50 (OCI-AML-3; dilutions starting at 10 µM): > 10000 nM; GI50 (KASUMI-6; KASUMI-6, 72 h, dilutions starting at 10 µM): 19 nM; GI50 (EOL-1; EOL-1, 72 h, dilutions starting at 10 µM): 89 nM; combination of AZD1208 and AC220 (MV-4-11 [2]): synergistic effect; GI50 (GDM-1; dilutions starting at 10 µM): 506 nM; GI50 (MOLM-16; MOLM-16, 72 h, dilutions starting at 10 µM): 16 nM; viability of MOLM-14 cells with FLT3-TKD mutants versus FLT3-ITD or parental cells [3]: only marginally affected the viability; GI50 (OCI-AML-2; OCI-AML-2, 72 h, dilutions starting at 10 µM): 333 nM; GI50 (MOLM-6; MOLM-6, 72 h, dilutions starting at 10 µM): 973 nM; CC50 (MOLM-6; MOLM-6, 72 h, 50% death relative to T0): > 10000 nM; GI50 (MOLM-13; dilutions starting at 10 µM): 306 nM; CC50 (MOLM-13; 50% death relative to T0): > 10000 nM; TGI (MOLM-13 xenografts): 19.5%; GI50 (RS4;11; RS4;11, 72 h, dilutions starting at 10 µM): 4220 nM; CC50 (RS4;11; RS4;11, 72 h, 50% death relative to T0): > 10000 nM; GI50 (SIG-M5; dilutions starting at 10 µM): > 10000 nM; CC50 (SIG-M5; 50% death relative to T0): > 10000 nM; GI50 (SKM-1; dilutions starting at 10 µM): > 10000 nM; CC50 (SKM-1; 50% death relative to T0): > 10000 nM; GI50 (KG-1; dilutions starting at 10 µM): 20 nM; CC50 (KG-1; 50% death relative to T0): > 10000 nM; GI50 (PL-21; dilutions starting at 10 µM): > 10000 nM; S6 (S235/236) phosphorylation (MOLM-16 (FLT3-WT) cells): profound inhibition; MCL1 abundance [4]: did not alter; STAT5 signaling [4]: did not change; TGI (KG-1 (FLT3-WT) tumor): 59.9%; GI50 (MV-4-11 [1]; MV-4-11, 72 h, dilutions starting at 10 µM): 1460 nM; GI50 (SKNO-1; dilutions starting at 10 µM): 5 nM
